# Patent publication US9656990B2, “Cathepsin cysteine protease inhibitors” (Merck Sharp & Dohme Corp., priority 2014, dated 2017)
# How the values were obtained:
# human cathepsin F = target: T1, human cathepsin F (Homo sapiens, UniProt Q9UBX1); experiment: Cathepsin F Assay; type: biochemical; conditions: IP from dose response curve; Z-Phe-Arg-AMC substrate, pH 5.5; read-out: hCat F (IP (nM))
# T1 sequence (Q9UBX1 271-484): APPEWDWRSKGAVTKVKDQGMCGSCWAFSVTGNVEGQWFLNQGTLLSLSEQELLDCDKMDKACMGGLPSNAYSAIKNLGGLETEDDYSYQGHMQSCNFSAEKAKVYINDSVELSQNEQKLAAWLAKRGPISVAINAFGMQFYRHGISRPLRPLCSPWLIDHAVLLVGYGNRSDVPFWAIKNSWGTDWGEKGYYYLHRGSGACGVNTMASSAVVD
# Procedure, shortened: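 Human cathepsin F (10 nM) preincubated 15 min at room temperature with compounds in 50 mM MES pH 5.5, 2.5 mM EDTA, 2.5 mM DTT, 10% DMSO. Z-Phe-Arg-AMC (8 μM) added; AMC release read by fluorescence (Ex 360/Em 460 nm) over 20 min, inhibition fit to dose-response model.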
# human cathepsin K = human cathepsin K (UniProt P43236, Y175D/V274L, species not given); experiment: Cathepsin K Assay; type: biochemical; conditions: IP from dose response curve; Z-Leu-Arg-AMC substrate, pH 5.5; read-out: hrbCat K (IP (nM))
compound,measurement,setting,value
"N#CC1(NC(=O)[C@@H]2CCCC[C@H]2c2nn(-c3cccc(C(F)(F)F)c3)cc2-c2ccc(N3CCS(=O)(=O)CC3)cc2)CC1 [Example 124, (1R,2R)-N-(1-cyanocyclopropyl)-2-(4-(4-(1,1-dioxidothiomorpholino)phen-yl)-1-(3-(trifluoromethyl)phenyl)-1H-pyrazol-3-yl)cyclohexanecarboxamide]",IC50,human cathepsin F,588 nM
same,IC50,human cathepsin K,1.58 nM
"N#CCNC(=O)[C@H]1CC(F)(F)CC[C@@H]1c1nn(-c2ccc(F)cc2)cc1-c1ccc(N2CCS(=O)(=O)CC2)cc1 [Example 82, (1S,2S)-N-(cyanomethyl)-2-(4-(4-(1,1-dioxidothiomorpholino)phen-yl)-1-(4-fluorophenyl)-1H-pyrazol-3-yl)-5,5-difluorocyclohexanecarbox-amide]",IC50,human cathepsin F,1400 nM
same,IC50,human cathepsin K,144 nM
"N#Cc1cc(Cl)ccc1-n1cc(-c2ccc(N3CCS(=O)(=O)CC3)cc2)c([C@@H]2CCCC[C@H]2C(=O)NC2(C#N)CC2)n1 [Example 105, (1R,2R)-2-(1-(4-chloro-2-cyanophenyl)-4-(4-(1,1-dioxidothiomorpholino)phen-yl)-1H-pyrazol-3-yl)-N-(1-cyanocyclopropyl)cyclohex-anecarboxamide]",IC50,human cathepsin F,1260 nM
same,IC50,human cathepsin K,3.23 nM
"N#CC1(NC(=O)[C@@H]2CC3CC3C[C@H]2c2nn(-c3ccc(F)cn3)cc2-c2ccc(N3CCS(=O)(=O)CC3)cc2)CC1 (single isomer, unassigned) [Example 152, (1S,3R,4R,6R) or (1R,3R,4R,6S)-N-(1-cyanocyclopropyl)-4-(4-(4-(1,1-dioxidothiomorpholino)phen-yl)-1-(5-fluoropyridin-2-yl)-1H-pyrazol-3-yl)bicyclo[4.1.0]heptane-3-carboxamide]",IC50,human cathepsin F,338 nM
same,IC50,human cathepsin K,1.06 nM
"N#CC1(NC(=O)[C@@H]2CCCC[C@H]2c2nn(-c3ncc(F)cc3F)cc2-c2ccc(N3CCS(=O)(=O)CC3)cc2)CC1 [Example 148, (1R,2R)-N-(1-cyanocyclopropyl)-2-(1-(3,5-difluoropyridin-2-yl)-4-(4-(1,1-dioxidothiomorpholino)phen-yl)-1H-pyrazol-3-yl)cyclohexanecarboxamide]",IC50,human cathepsin F,502 nM
same,IC50,human cathepsin K,1.01 nM
"N#CC1(NC(=O)[C@@H]2CCCC[C@H]2c2nn(-c3ccc(F)cc3)cc2-c2ccc(N3CCS(=O)(=O)CC3)cc2)CC1 [Example 85, (1R,2R)-N-(1-cyanocyclopropyl)-2-(4-(4-(1,1-dioxidothiomorpholino)phen-yl)-1-(4-fluorophenyl)-1H-pyrazol-3-yl)cyclohexanecarboxamide]",IC50,human cathepsin F,352 nM
same,IC50,human cathepsin K,0.69 nM
"Cc1c(-c2ccc(N3CCS(=O)(=O)CC3)cc2)c([C@@H]2CCC(F)(F)C[C@H]2C(=O)NC2(C#N)CC2)nn1-c1ccc(F)cn1 [Example 27, (1R,2R)-N-(1-cyanocyclopropyl)-2-(4-(4-(1,1-dioxidothiomorpholino)phen-yl)-1-(5-fluoropyridin-2-yl)-5-methyl-1H-pyrazol-3-yl)-5,5-difluorocyclohexanecarbox-amide]",IC50,human cathepsin F,170 nM
same,IC50,human cathepsin K,1.28 nM
"C[C@@H](C#N)NC(=O)[C@@H]1CCC(F)(F)C[C@H]1c1nn(-c2ncccc2F)cc1-c1ccc(N2CCS(=O)(=O)CC2)cc1 [Example 34, (1R,2R)-N-((S)-1-cyanoethyl)-2-(4-(4-(1,1-dioxidothiomorpholino)phen-yl)-1-(3-fluoropyridin-2-yl)-1H-pyrazol-3-yl)-4,4-difluorocyclohexanecarbox-amide]",IC50,human cathepsin F,2830 nM
same,IC50,human cathepsin K,5.4 nM
"CN=S1(=O)CCN(c2ccc(-c3cn(-c4ccc(F)cn4)nc3[C@@H]3CC(F)(F)CC[C@H]3C(=O)NC3(C#N)CC3)cc2)CC1 [Example 9, (1R,2R)—N-(1-Cyanocyclopropyl)-4,4-difluoro-2-(1-(5-fluoropyridin-2-yl)-4-(4-(1-(methylimino)-1-oxidothiomorpholino)phenyl)-1H-pyrazol-3-yl)cyclohexanecarboxamide]",IC50,human cathepsin F,3670 nM
same,IC50,human cathepsin K,2.56 nM
